Source: patent US5616615A, “Enaminone esters” (priority 1995, dated 1997)

System: Maximal electroshock seizures
Experiment: MES maximal electroshock seizure test, mice ip
Type: in vivo
Conditions: Mus musculus, ip, 0.5 h, 100 mg/kg, 30 min; read-out: MES, animals protected/tested (converted)
Procedure: Three tests were performed:
1. MES--Electroshock Seizure Test
(§1) Maximal electroshock seizures are elicited with a 60-cycle alternating current of 50 mA intensity (5-7 times that necessary to elicit minimal electroshock seizures) delivered via corneal electrodes for 0.2 seconds. A drop of 0.9% saline is instilled in the eye prior to application of the electrodes in order to […].

Q: For COC(=O)C1C(=O)C=C(Nc2ccc(Cl)cc2)CC1(C)C (stereo not shown) [Compound 119], which responders at 100 mg/kg is on record?
A: 100%

Q: Which responders at 100 mg/kg does the source give for CCOC(=O)C1C(=O)C=C(Nc2ccc(F)cc2)CC1C (stereo not shown) [Compound 124] here?
A: 100%

Q: With CC1(C)CC(=O)C=C(Nc2ccc([N+](=O)[O-])cc2)C1 [Compound 138] as the compound, how does the responders at 100 mg/kg read?
A: 33.3%

Same assay, conditions: Mus musculus, ip, 0.5 h, 300 mg/kg, 30 min; read-out: MES, animals protected/tested

Q: Which responders at 300 mg/kg does the source give for COC(=O)C1C(=O)C=C(Nc2ccc(Cl)cc2)CC1(C)C (stereo not shown) [Compound 119] here?
A: 100%

Q: With CCOC(=O)C1C(=O)C=C(Nc2ccc(F)cc2)CC1C (stereo not shown) [Compound 124] as the compound, how does the responders at 300 mg/kg read?
A: 100%

Q: For CC1(C)CC(=O)C=C(Nc2ccc([N+](=O)[O-])cc2)C1 [Compound 138], which responders at 300 mg/kg is on record?
A: 100%

Same assay, conditions: Mus musculus, ip, 4 h, 100 mg/kg, 4 h; read-out: MES, animals protected/tested (converted)

Q: Which responders at 100 mg/kg does the source give for COC(=O)C1C(=O)C=C(Nc2ccc(Cl)cc2)CC1(C)C (stereo not shown) [Compound 119] here?
A: 100%

Q: For CCOC(=O)C1C(=O)C=C(Nc2ccc(F)cc2)CC1C (stereo not shown) [Compound 124], which responders at 100 mg/kg is on record?
A: 0%

Q: With CC1(C)CC(=O)C=C(Nc2ccc([N+](=O)[O-])cc2)C1 [Compound 138] as the compound, how does the responders at 100 mg/kg read?
A: 0%

Same assay, conditions: Mus musculus, ip, 4 h, 300 mg/kg, 4 h; read-out: MES, animals protected/tested

Q: With COC(=O)C1C(=O)C=C(Nc2ccc(Cl)cc2)CC1(C)C (stereo not shown) [Compound 119] as the compound, how does the responders at 300 mg/kg read?
A: 100%

Q: With CCOC(=O)C1C(=O)C=C(Nc2ccc(F)cc2)CC1C (stereo not shown) [Compound 124] as the compound, how does the responders at 300 mg/kg read?
A: 0%

Q: With CC1(C)CC(=O)C=C(Nc2ccc([N+](=O)[O-])cc2)C1 [Compound 138] as the compound, how does the responders at 300 mg/kg read?
A: 0%

System: not listed separately
Experiment: in vivo
Conditions: rat, po, 50 mg/kg
Text: (§2) This oral screen is designated as phase VI.

Q: With COC(=O)C1C(=O)C=C(Nc2ccc(Cl)cc2)CC1(C)C (stereo not shown) [Compound 119] as the compound, how does the “Tox, animals toxic/tested” value read?
A: 0/4

Q: With CCOC(=O)C1C(=O)C=C(Nc2ccc(F)cc2)CC1C (stereo not shown) [Compound 124] as the compound, how does the “Tox, animals toxic/tested” value read?
A: 0/4

Q: For CC1(C)CC(=O)C=C(Nc2ccc([N+](=O)[O-])cc2)C1 [Compound 138], which “Tox, animals toxic/tested” value is on record?
A: 0/4

System: Subcutaneous Pentylenetetrazol seizure
Experiment: sc Met subcutaneous pentylenetetrazol (Metrazol) seizure test, mice
Type: in vivo
Conditions: Mus musculus, sc, 0.5 h, 100 mg/kg, 30 min; read-out: scMet, animals protected/tested (converted)

Q: For COC(=O)C1C(=O)C=C(Nc2ccc(Cl)cc2)CC1(C)C (stereo not shown) [Compound 119], which responders at 100 mg/kg is on record?
A: 0%

Q: For CCOC(=O)C1C(=O)C=C(Nc2ccc(F)cc2)CC1C (stereo not shown) [Compound 124], which responders at 100 mg/kg is on record?
A: 0%

Q: Which responders at 100 mg/kg does the source give for CC1(C)CC(=O)C=C(Nc2ccc([N+](=O)[O-])cc2)C1 [Compound 138] here?
A: 0%

Same assay, conditions: Mus musculus, sc, 0.5 h, 300 mg/kg, 30 min, second trial; read-out: scMet, animals protected/tested (converted)

Q: For CCOC(=O)C1C(=O)C=C(Nc2ccc(F)cc2)CC1C (stereo not shown) [Compound 124], which responders at 300 mg/kg is on record?
A: 50%

Same assay, conditions: Mus musculus, sc, 0.5 h, 300 mg/kg, 30 min; read-out: scMet, animals protected/tested (converted)

Q: Which responders at 300 mg/kg does the source give for COC(=O)C1C(=O)C=C(Nc2ccc(Cl)cc2)CC1(C)C (stereo not shown) [Compound 119] here?
A: 100%

Q: Which responders at 300 mg/kg does the source give for CCOC(=O)C1C(=O)C=C(Nc2ccc(F)cc2)CC1C (stereo not shown) [Compound 124] here?
A: 100%

Q: With CC1(C)CC(=O)C=C(Nc2ccc([N+](=O)[O-])cc2)C1 [Compound 138] as the compound, how does the responders at 300 mg/kg read?
A: 0%

Same assay, conditions: Mus musculus, sc, 4 h, 100 mg/kg, 4 h; read-out: scMet, animals protected/tested (converted)

Q: With COC(=O)C1C(=O)C=C(Nc2ccc(Cl)cc2)CC1(C)C (stereo not shown) [Compound 119] as the compound, how does the responders at 100 mg/kg read?
A: 0%

Q: With CCOC(=O)C1C(=O)C=C(Nc2ccc(F)cc2)CC1C (stereo not shown) [Compound 124] as the compound, how does the responders at 100 mg/kg read?
A: 0%

Q: For CC1(C)CC(=O)C=C(Nc2ccc([N+](=O)[O-])cc2)C1 [Compound 138], which responders at 100 mg/kg is on record?
A: 0%

Same assay, conditions: Mus musculus, sc, 4 h, 300 mg/kg, 4 h; read-out: scMet, animals protected/tested (converted)

Q: With COC(=O)C1C(=O)C=C(Nc2ccc(Cl)cc2)CC1(C)C (stereo not shown) [Compound 119] as the compound, how does the responders at 300 mg/kg read?
A: 100%

Q: With CCOC(=O)C1C(=O)C=C(Nc2ccc(F)cc2)CC1C (stereo not shown) [Compound 124] as the compound, how does the responders at 300 mg/kg read?
A: 0%

Q: With CC1(C)CC(=O)C=C(Nc2ccc([N+](=O)[O-])cc2)C1 [Compound 138] as the compound, how does the responders at 300 mg/kg read?
A: 0%

System: Maximal electroshock seizures
Experiment: Phase VI oral MES test, rats
Type: in vivo
Conditions: Rattus norvegicus, 0.5 h; oral, 50 mg/kg, 0.50 h; read-out: MES, animals protected/tested (converted)
Text: as §1, §2

Q: With COC(=O)C1C(=O)C=C(Nc2ccc(Cl)cc2)CC1(C)C (stereo not shown) [Compound 119] as the compound, how does the responders at 50 mg/kg read?
A: 75%

Q: With CCOC(=O)C1C(=O)C=C(Nc2ccc(F)cc2)CC1C (stereo not shown) [Compound 124] as the compound, how does the responders at 50 mg/kg read?
A: 100%

Q: Which responders at 50 mg/kg does the source give for CC1(C)CC(=O)C=C(Nc2ccc([N+](=O)[O-])cc2)C1 [Compound 138] here?
A: 0%

Same assay, conditions: Rattus norvegicus; oral, 50 mg/kg, 0.25 h; read-out: MES, animals protected/tested (converted)

Q: For COC(=O)C1C(=O)C=C(Nc2ccc(Cl)cc2)CC1(C)C (stereo not shown) [Compound 119], which responders at 50 mg/kg is on record?
A: 100%

Q: Which responders at 50 mg/kg does the source give for CCOC(=O)C1C(=O)C=C(Nc2ccc(F)cc2)CC1C (stereo not shown) [Compound 124] here?
A: 100%

Q: Which responders at 50 mg/kg does the source give for CC1(C)CC(=O)C=C(Nc2ccc([N+](=O)[O-])cc2)C1 [Compound 138] here?
A: 0%

Same assay, conditions: Rattus norvegicus; oral, 50 mg/kg, 1.00 h; read-out: MES, animals protected/tested (converted)

Q: For COC(=O)C1C(=O)C=C(Nc2ccc(Cl)cc2)CC1(C)C (stereo not shown) [Compound 119], which responders at 50 mg/kg is on record?
A: 100%

Q: With CCOC(=O)C1C(=O)C=C(Nc2ccc(F)cc2)CC1C (stereo not shown) [Compound 124] as the compound, how does the responders at 50 mg/kg read?
A: 100%

Q: Which responders at 50 mg/kg does the source give for CC1(C)CC(=O)C=C(Nc2ccc([N+](=O)[O-])cc2)C1 [Compound 138] here?
A: 0%

Same assay, conditions: Rattus norvegicus; oral, 50 mg/kg, 2.00 h; read-out: MES, animals protected/tested (converted)

Q: For COC(=O)C1C(=O)C=C(Nc2ccc(Cl)cc2)CC1(C)C (stereo not shown) [Compound 119], which responders at 50 mg/kg is on record?
A: 100%

Q: Which responders at 50 mg/kg does the source give for CCOC(=O)C1C(=O)C=C(Nc2ccc(F)cc2)CC1C (stereo not shown) [Compound 124] here?
A: 100%

Q: Which responders at 50 mg/kg does the source give for CC1(C)CC(=O)C=C(Nc2ccc([N+](=O)[O-])cc2)C1 [Compound 138] here?
A: 50%

Same assay, conditions: Rattus norvegicus; oral, 50 mg/kg, 4.00 h; read-out: MES, animals protected/tested (converted)

Q: For COC(=O)C1C(=O)C=C(Nc2ccc(Cl)cc2)CC1(C)C (stereo not shown) [Compound 119], which responders at 50 mg/kg is on record?
A: 100%

Q: Which responders at 50 mg/kg does the source give for CCOC(=O)C1C(=O)C=C(Nc2ccc(F)cc2)CC1C (stereo not shown) [Compound 124] here?
A: 75%

Q: With CC1(C)CC(=O)C=C(Nc2ccc([N+](=O)[O-])cc2)C1 [Compound 138] as the compound, how does the responders at 50 mg/kg read?
A: 0%

System: seizures
Experiment: Anticonvulsant evaluation (ASP phase I / overall)
Type: in vivo, mice
Conditions: Mus musculus, ip; Phase I; read-out: ASP Classification
Procedure: The first phase of the ADD Program involved performing tests on male Carworth Farms #1 mice. […] Three tests were performed:
as §1
The animal is observed for 30 minutes.

Q: Which minimal effective dose does the source give for COC(=O)C1C(=O)C=C(Nc2ccc(Cl)cc2)CC1(C)C (stereo not shown) [Compound 119] here?
A: < 100 mg/kg

Q: For CCOC(=O)C1C(=O)C=C(Nc2ccc(F)cc2)CC1C (stereo not shown) [Compound 124], which minimal effective dose is on record?
A: < 100 mg/kg

Q: With CC1(C)CC(=O)C=C(Nc2ccc([N+](=O)[O-])cc2)C1 [Compound 138] as the compound, how does the minimal effective dose read?
A: < 100 mg/kg
